Key:
[1] = test system: IFN-γ; assay: Th1 response: IFN-γ production from lymph node cells of immunized mice restimulated with OVA; type: in vivo, BALB/c mice; settings: Example 10; s.c. OVA 10 μg + 0.256 μmol in 5% αCD saline (Addavax 1:1); groin lymph node ten days later; 0.1-100 μg OVA, 40 hr, ELISA
Procedure: (§1) Ten days later, groin lymph node was collected from all mice of the above-mentioned (1) to (4), lymph node cells were isolated and cultured in 10% FBS-containing RPMI1640 medium. Thereto was added 0.1 μg, 1 μg, 10 μg, 100 μg of OVA, respectively, 40 hr later, cell supernatant was recovered, and IFN-γ and IL-4 in the supernatant were measured by ELISA.

[2] = test system: IL-4; assay: Th2 response: IL-4 production from lymph node cells of immunized mice restimulated with OVA; type: in vivo, BALB/c mice; settings: Example 10; s.c. OVA 10 μg + 0.256 μmol in 5% αCD saline (Addavax 1:1); groin lymph node ten days later; 0.1-100 μg OVA, 40 hr, ELISA
Procedure: as §1

[3] = test system: anti-OVA-specific IgG1 subclass antibody; assay: Adjuvant activity: anti-OVA-specific IgG1 subclass antibody in serum after secondary immunization (Examples 1, 5, 7, 8; ELISA absorbance); type: in vivo, BALB/c mice; settings: Example 7
Procedure: (§2) Two weeks from the secondary immunization, the whole blood was extracted under anesthesia, and the obtained serum sample was measured for anti-OVA-specific IgG1 subclass antibody.
A method for measurement of the anti-OVA-specific IgG1 subclass antibody in Example 1, and the following Examples 5, 7 and 8 is as follows.
Measurement Method of anti-OVA-specific IgG1 Subclass Antibody
(§3) To a 96 well plate was added 5 μg/ml OVA at 100 μl/well, and the mixture was incubated at 4° C. overnight. After incubation, the mixture was washed three times with 200 μl of PBS-T (PBS+0.05%(v/v) Tween 20) per well, and blocked with 100 μl of 5% FCS/PBS solution per well at room temperature for 1 to 2 hr. Thereafter, the mixture was washed three times with PBS-T (200 μl/well), a diluted serum sample (100 μl/well) or the same amount of 5% FCS/PBS solution as a control was added, and the mixture was incubated at 37° C. for 1 hr. Thereafter, the mixture was washed five times with PBS-T (200 μl/well), a diluted biotinylated anti-mouse IgG1 antibody (100 μl/well) was added, and the mixture was incubated at 37° C. for 45 min. Thereafter, the mixture was washed five times with PBS-T (200 μl/well), a diluted anti-biotin-HRP antibody was added (100 μl/well), and the mixture was incubated at 37° C. for another 30 min. Thereafter, the mixture was washed five times with PBS-T (200 μl/well), TMB substrate solution was added (100 μl/well), and the mixture was incubated at room temperature for 10 to 15 min. Thereafter, a reaction quenching liquid (2N sulfuric acid solution) was added (50 μl/well) to discontinue a color developing reaction, and the absorbance (OD Value=450 nm) was measured by a microplate reader.

[4] = test system: anti-OVA-specific IgE antibody; settings: mouse, in vivo
Procedure: The serum sample obtained in Example 1 was measured for an anti-OVA-specific IgE antibody. The measurement method of the anti-OVA-specific IgE antibody in Example 3 and Examples 6, 9 is as follows.
Measurement Method of anti-OVA-specific IgE Antibody
DS mouse IgE ELISA (OVA) kit manufactured by DS Pharma Biomedical Co., Ltd. was used. The protocol is briefly shown below.
The serum sample and a standard reagent for drawing an analytical curve are diluted with a buffer and, after stirring, left standing at room temperature for 10 min. The sample and the standard solution are added to a plate bound with an IgE capture antibody in advance and, after stirring, the mixture is left standing at room temperature for 60 min. The mixture is washed three times with wash, HRP-labeled OVA is added, and the mixture is left standing at room temperature for 30 min. The mixture is washed three times with wash, a substrate solution is added, and the mixture is left standing in dark at room temperature for 30 min. A reaction quenching liquid is added, the mixture is stirred, and the absorbance (OD Value=450 nm) is immediately measured.
This test was performed in the same manner as in Example 3 except that N^2-hexadecanoyl-L-arginine (SZ61), N-hexadecanoylagmatine (SZ62), N^2-hexadecanoyl-L-arginine methyl ester hydrochloride (SZ63), N^2-octadecanoyl-L-glutamine tert-butyl ester (SZ64), and N^2-octadecanoyl-L-glutamine (SZ65) were used.
This test was performed in the same manner as in Example 6 except that N-hexadecanoylagmatine (SZ62), N^2-octadecanoyl-L-glutamine tert-butyl ester (SZ64), N-docosanoyl-L-leucine methyl ester (SZ70), and N-docosanoyl-L-phenylalanine methyl ester (SZ71) were used and a positive control adjuvant Addavax™ (InvivoGen) administration group was formed.
(§4) The allergy inducing activity test was performed in the same manner as in Example 3 except that Addavax™, N-(2-octadecyleicosanoyl)-L-leucine methyl ester (SZ86), N-hexadecanoyl-L-leucinamide (SZ90), N^2-hexadecanoyl-N^1,N^1-diethyl-L-leucinamide (SZ92), N^2-hexadecanoyl-L-arginine hexyl ester hydrochloride (SZ99) and N^2-docosanoyl-N^1,N^1-diethyl-L-glutamic acid 1-amide (SZ106) were used.
as §4, with “N-hexadecanoyl-L-leucine” for “N^2-hexadecanoyl-L-arginine”, “(SZ97),” for “hydrochloride (SZ99) and”, “(SZ106) and N-docosanoylagmatine hydrochloride (SZ108)” for “(SZ106)”
8-Week-old female BALB/c mice were divided into groups (N=6), and each group was primarily immunized by dorsal-subcutaneous administration of (1) ovalbumin (OVA) (5 μg) dissolved in saline as an antigen (OVA single administration group), (2) OVA (10 μg) and aluminum hydroxide salt dissolved in saline (Alum administration group), (3) OVA 10 μg and Addavax™ (mixed with saline at 1:1) dissolved in saline (Addavax™ administration group), (4) OVA 10 μg and CpG 5 μg dissolved in saline (CpG administration group), (5) OVA 10 μg and MPL 5 μg dissolved in saline (MPL administration group), (6) OVA (5 μg) and SZ62 (0.256 μmol) dissolved or dispersed in 5% αCD-added saline (SZ62 administration group), (7) OVA (5 μg), SZ62 (0.256 μmol) and CpG 5 μg dissolved or dispersed in 5% αCD-added saline (SZ62+CpG administration group), (8) OVA 10 μg, Addavax™ (mixed with saline at 1:1) and CpG 5 μg dissolved in saline (Addavax™+CpG administration group), (9) OVA (5 μg), SZ62 (0.256 μmol) and MPL 5 μg dissolved or dispersed in 5% αCD-added saline (SZ62+MPL administration group), (10) OVA (10 μg), aluminum hydroxide salt (Alum) and MPL 5 μg dissolved in saline (Alum+MPL administration group), each per mouse. One week later, the secondary immunization was carried out by dorsal-subcutaneous administration of solutions or dispersions similar to those of the above-mentioned (1) to (10) again.

[5] = test system: anti-OVA-specific IgG2a subclass antibody; assay: Adjuvant activity: anti-OVA-specific IgG2a subclass antibody in serum after secondary immunization; type: in vivo, BALB/c mice; settings: Example 21; s.c.; SZ62 0.256 μmol in 5% αCD saline, CpG 5 μg, MPL 5 μg, Addavax 1:1, Alum; two weeks from secondary immunization
Procedure: as §2
Measurement Method of anti-OVA-specific IgG2a Subclass Antibody
as §3, with “IgG2a” for “IgG1”, “10-15” for “10 to 15”
Measurement Method of Concentration of anti-OVA-specific IgG1 Subclass Antibody and anti-OVA-specific IgG2a Subclass Antibody
To a 96 well plate was added 5 μg/ml OVA at 100 μl/well, and the mixture was incubated at 4° C. overnight. After incubation, the mixture was washed three times with 200 μl of PBS-T (PBS+0.05% (v/v) Tween 20) per well, and blocked with 100 μl of 5% FCS/PBS solution per well at room temperature for 1 to for 2 hr. […] When an anti-OVA-specific IgG2a subclass antibody was measured, the standard of an anti-OVA-specific IgG2a subclass antibody was added at 50 ng/ml, 25 ng/ml, 12,5 ng/ml, 6.25 ng/ml, 3.125 ng/ml, 1.56 ng/ml, 0.781 ng/ml, 0.391 ng/ml, 0.195 ng/ml, 0.098 ng/ml, 0.049 ng/ml, 0 ng/ml, per 1 well. […] Thereafter, a reaction quenching liquid (2N sulfuric acid solution) was added (50 μl/well) to discontinue a color developing reaction, and the absorbance (OD Value=450 nm) was measured by a microplate reader. A standard curve was drawn from the measured OD values, and the concentration was calculated.

[6] = test system: anti-OVA-specific IgG1 subclass antibody; assay: Adjuvant activity: anti-OVA-specific IgG1 subclass antibody in serum after secondary immunization (Examples 12, 19, 20, 21); type: in vivo, BALB/c mice; settings: Example 21; s.c.; SZ62 0.256 μmol in 5% αCD saline, CpG 5 μg, MPL 5 μg, Addavax 1:1, Alum; two weeks from secondary immunization

Row | Compound | IFN-γ production from lymph node cells [1] | IL-4 production from lymph node cells [2] | adjuvant activity (IgG1) compared with Alum [3] | anti-OVA-specific IgG1 subclass antibody production as compared to the OVA single administration group ([3]; same manner as Example 1, plus Addavax group) | allergy inducing activity as compared to aluminum hydroxide gel adjuvant and Addavax [4] | anti-OVA-specific IgG2a subclass antibody production as compared to the OVA single administration group [5] | anti-OVA-specific IgG1 subclass antibody production as compared to the OVA single administration group [6]
1 | CCCCCCCCCCCCCCCCCCCCCC(=O)N[C@@H](CC(C)C)C(=O)OC [SZ70, N-docosanoyl-L-leucine methyl ester] | increased in an OVA volume dependent manner | did not show an increase | equivalent to or not less than that of Alum | significantly increased | lower allergy inducing activity |  | 
2 | monophosphoryl lipid [MPL, reference compound] |  |  |  |  |  | tended to increase | significantly increased

Source: patent publication US20180243421A1, “IMMUNOSTIMULATING AGENT” (AJINOMOTO CO., INC., priority 2015, published 2018)
